Experimental findings from ChEMBL document CHEMBL4483862, “Open-source discovery of chemical leads for next-generation chemoprotective antimalarials” (2018) are described below.

Structures are written as SMILES.

This experiment deals with Plasmodium berghei. As to the kind of experiment: Luciferase/luciferin-expressing antifolate-resistant parasites were used to infect a culture of HepG2 cells that were pre-incubated with compounds. Infected hepatocytes emit light due to the luciferase reaction. Assay results are presented as the percent inhibition of light emission compared to control. […]. The format is functional. Conditions: sporozoite; for IC90: read-out: LUCIFERASE INFECTION ASSAY - IC90.

The mark [1] stands for this setting: read-out: LUCIFERASE INFECTION ASSAY - IC50.

Regarding `Clc1nc(-c2ccccn2)nc2scc(-c3ccccc3)c12`, the IC90 (in general, the point of the concentration-response curve where the effect stands at 90%) turned out to be 1.68 µM. Also, the IC50 (commonly the concentration needed to halve the response being measured) (HEPG2TOX_HILL_SLOPE 0.933, HEPG2TOX_R_SQUARED 0.89, PBLUC_HILL_SLOPE 8.14, PBLUC_R_SQUARED 0.197, read-out: LUCIFERASE INFECTION ASSAY - IC50) came to 1.28 µM.
As to `COc1ccc(OC)c(NC(=O)c2ccc(NC3=C(Cl)C(=O)N(C4CCCCC4)C3=O)cc2)c1`, the concentration for an effect of 90% (IC90) was 8.05 µM. For the same compound, the concentration for half-maximal inhibition (IC50) (HEPG2TOX_HILL_SLOPE 3.19, HEPG2TOX_R_SQUARED 0.935, PBLUC_HILL_SLOPE 2.39, PBLUC_R_SQUARED 0.579, read-out: LUCIFERASE INFECTION ASSAY - IC50) worked out at 3.21 µM.
With `Fc1ccc(C(CCNCc2ccccn2)c2ccc(Cl)cc2)cc1` (stereo unspecified), the concentration for an effect of 90% (IC90) was over 9.3 µM. Also, the concentration for half-maximal inhibition (IC50) (PBLUC_HILL_SLOPE 1.42, PBLUC_R_SQUARED 0.0971, read-out: LUCIFERASE INFECTION ASSAY - IC50) stood at 5.49 µM.
Consider `Cc1nc2cc(Nc3nc(CN4CCOCC4)nc4scc(-c5ccccc5)c34)ccc2n1-c1ccccc1`, for which the IC90 is over 10 µM. For the same compound, the half-maximal inhibitory concentration (IC50) under setting [1] is over 10 µM.
Turning to `OC(c1cc(F)c(F)c(F)c1)c1nnc(Nc2cc(C(F)(F)F)ccc2F)s1` (stereo unspecified), the concentration for an effect of 90% (IC90) amounted to 7.5 µM. The IC50 (PBLUC_HILL_SLOPE 4.45, PBLUC_R_SQUARED 0.324, read-out: LUCIFERASE INFECTION ASSAY - IC50) is 4.58 µM.
`COc1ccccc1-c1nnc(SCc2cc(=O)c(O)co2)n1C`: the IC90 was over 10 µM. In addition, under setting [1], the IC50 was over 10 µM.
Turning to `Cc1ccc(C(=O)NCCSc2ccc(Cl)cc2)o1`, the IC90 was over 10 µM. The IC50 under setting [1] is over 10 µM.
In the case of `CCOC(=O)c1cnc2cc(Cl)c(F)cc2c1Sc1ccc(Cl)cc1`, the IC90 was over 8.33 µM. Besides, the IC50 under setting [1] is over 8.33 µM.
On to `CN(C)C(=O)c1cccc(-c2cn3c(-c4ccc5ncccc5c4)cnc3cn2)c1`, for which the IC90 is over 8.39 µM. For the same compound, the half-maximal inhibitory concentration (IC50) (PBLUC_HILL_SLOPE 5.92, PBLUC_R_SQUARED 0.583, read-out: LUCIFERASE INFECTION ASSAY - IC50) turned out to be 5.83 µM.
On to `Cn1ccc2cc(-c3cn4c(-c5ccc(CO)cc5)cnc4cn3)ccc21`, for which the IC90 worked out at 0.829 µM. In addition, the 50% inhibitory concentration (IC50) (FFLUC_HILL_SLOPE 16.7, FFLUC_R_SQUARED 0.117, HEPG2TOX_HILL_SLOPE 0.88, HEPG2TOX_R_SQUARED 0.915, PBLUC_HILL_SLOPE 3.4, PBLUC_R_SQUARED 0.717, read-out: LUCIFERASE INFECTION ASSAY - IC50) was 0.435 µM.
As for `NC1=C(c2ccccc2)C(=O)c2ccccc21`, the IC90 is over 14.9 µM. Besides, the half-maximal inhibitory concentration (IC50) (PBLUC_HILL_SLOPE 3.17, PBLUC_R_SQUARED 0.165, read-out: LUCIFERASE INFECTION ASSAY - IC50) is over 14.9 µM.
Consider `O=C(COC(=O)c1ccccc1NCCO)NC(=O)NCc1ccco1`, for which the IC90 was over 10 µM. Moreover, the half-maximal inhibitory concentration (IC50) under setting [1] was over 10 µM.
`O=C(Nc1ccc(-n2ccc(C(F)(F)F)n2)cc1)c1cccs1`: the 90% effect concentration (IC90) was found to be 3.61 µM. Moreover, the IC50 (PBLUC_HILL_SLOPE 1.9, PBLUC_R_SQUARED 0.777, read-out: LUCIFERASE INFECTION ASSAY - IC50) came out at 1.14 µM.
Take `CC(=O)O[C@]1(C(C)=O)CCC2C3C[C@H](C)C4=CC(=O)CCC4(C)C3CCC21C` (stereo partly specified): the IC90 was over 8.54 µM. Under “HEPG2TOX_HILL_SLOPE 11.5, HEPG2TOX_R_SQUARED 0.0757, read-out: LUCIFERASE INFECTION ASSAY - IC50”, the IC50 was over 8.54 µM.
Take `C=Cc1c(SC)sc(C(=O)O)c1C`: the IC90 was over 15.4 µM. For the same compound, under setting [1], the IC50 was over 15.4 µM.
As for `O=C(C[n+]1ccc(NC(=O)c2ccccc2)cc1)c1ccc(F)cc1`, the concentration for an effect of 90% (IC90) was over 7.95 µM. For the same compound, the IC50 (PBLUC_HILL_SLOPE 9.15, PBLUC_R_SQUARED 0.444, read-out: LUCIFERASE INFECTION ASSAY - IC50) came out at 6.42 µM.
As for `CCCn1c(=O)n(C)c(=O)c2c(SCc3cccc([N+](=O)[O-])c3)nc(CC(C)C)nc21`, the 90% effect concentration (IC90) was over 10 µM. The IC50 under setting [1] was over 10 µM.
As for `Cc1ccc(NC2=CC(=O)CC(c3ccco3)C2)c(N)c1` (stereo unspecified), the concentration for an effect of 90% (IC90) was 6.68 µM. In addition, for the setting “HEPG2TOX_HILL_SLOPE 7.93, HEPG2TOX_R_SQUARED 0.791, PBLUC_HILL_SLOPE 1.82, PBLUC_R_SQUARED 0.701, read-out: LUCIFERASE INFECTION ASSAY - IC50”, the 50% inhibitory concentration (IC50) worked out at 2 µM.
As to `O=C1CN(C(=O)CSC2=N/C(=C/c3ccccc3)C(=O)N2c2ccc(F)cc2)c2ccccc2N1`, the IC90 was over 10 µM. Moreover, the IC50 under setting [1] is over 10 µM.
Regarding `CCOc1cccc(-c2cn3c(-c4ccsc4)cnc3cn2)c1`, the concentration for an effect of 90% (IC90) is 9.69 µM. For the same compound, the IC50 under setting [1] came to 5.53 µM.
In the case of `CCC(C)(C)c1ccc(Oc2ccc(NC(=O)COC(=O)CNC(=O)c3ccc(C)c(C)c3)cc2)cc1`, the concentration for an effect of 90% (IC90) was over 10 µM. For the same compound, under “PBLUC_HILL_SLOPE 2.53, PBLUC_R_SQUARED 0.335, read-out: LUCIFERASE INFECTION ASSAY - IC50”, the half-inhibitory concentration (IC50) was 6.55 µM.
Take `CN1N=C(SCc2ccc(Cl)cc2Cl)Sc2c1cnn(C)c2=O`: the IC90 is over 8.52 µM. The IC50 (PBLUC_HILL_SLOPE 2.78, PBLUC_R_SQUARED 0.171, read-out: LUCIFERASE INFECTION ASSAY - IC50) worked out at 5.14 µM.
Turning to `CSc1ccccc1N1C(=O)C=CC1=O`, the IC90 came out at 10.8 µM. For the same compound, the half-inhibitory concentration (IC50) (FFLUC_HILL_SLOPE 3.57, FFLUC_R_SQUARED 0.584, HEPG2TOX_HILL_SLOPE 8.7, HEPG2TOX_R_SQUARED 0.127, PBLUC_HILL_SLOPE 6.46, PBLUC_R_SQUARED 0.572, read-out: LUCIFERASE INFECTION ASSAY - IC50) stood at 7.7 µM.
Regarding `O=C(COC(=O)c1cc(-c2ccc(Cl)cc2)nc2ccccc12)Nc1cc(C(F)(F)F)ccc1-n1cncn1`, the 90% effect concentration (IC90) was over 10 µM. Also, the IC50 under setting [1] was over 10 µM.
On to `c1ccc(-c2nnc(-c3ccccn3)nc2-c2ccccc2)cc1`, for which the 90% effect concentration (IC90) came out at 4.22 µM. Further, the IC50 (HEPG2TOX_HILL_SLOPE 3.54, HEPG2TOX_R_SQUARED 0.979, PBLUC_HILL_SLOPE 15.1, PBLUC_R_SQUARED 0.651, read-out: LUCIFERASE INFECTION ASSAY - IC50) amounted to 3.65 µM.
On to `c1ccc(Oc2ccccc2-c2cnn3c(NCc4ccccn4)ccnc23)cc1`, for which the 90% effect concentration (IC90) was over 8.39 µM. Further, the IC50 (PBLUC_HILL_SLOPE 14.9, PBLUC_R_SQUARED 0.143, read-out: LUCIFERASE INFECTION ASSAY - IC50) was found to be 8.25 µM.
`OCCCNc1ccc2ncc(-c3cccc(C(F)(F)F)c3)n2n1`: the IC90 turned out to be 1.21 µM. Also, where the note is “HEPG2TOX_HILL_SLOPE 0.946, HEPG2TOX_R_SQUARED 0.925, PBLUC_HILL_SLOPE 15.6, PBLUC_R_SQUARED 0.717, read-out: LUCIFERASE INFECTION ASSAY - IC50”, the half-maximal inhibitory concentration (IC50) worked out at 1.05 µM.
As for `COc1ccccc1-c1cnc2c(Nc3ccc(NS(=O)(=O)c4ccc(C)cc4)cc3)nccn12`, the concentration for an effect of 90% (IC90) was over 6.8 µM. Also, the IC50 under setting [1] amounted to 1.57 µM.
Turning to `COc1ccc(/C(C#N)=C/c2ccccc2OC)cc1`, the concentration for an effect of 90% (IC90) was 2.26 µM. The IC50 (HEPG2TOX_HILL_SLOPE 1.28, HEPG2TOX_R_SQUARED 0.968, PBLUC_HILL_SLOPE 1.65, PBLUC_R_SQUARED 0.898, read-out: LUCIFERASE INFECTION ASSAY - IC50) was 0.597 µM.
Turning to `Cc1ccc(S(=O)(=O)/N=C2\C=C3N(CCO)CCOC3(O)c3ccccc32)c(C)c1` (stereo unspecified), the IC90 came to 6.56 µM. Under “FFLUC_HILL_SLOPE 0.405, FFLUC_R_SQUARED 0.0273, HEPG2TOX_HILL_SLOPE 10.4, HEPG2TOX_R_SQUARED 0.538, PBLUC_HILL_SLOPE 3.34, PBLUC_R_SQUARED 0.51, read-out: LUCIFERASE INFECTION ASSAY - IC50”, the 50% inhibitory concentration (IC50) was found to be 3.4 µM.
As to `CCOc1ccc(NCC(=O)c2ccc(-c3ccccc3)cc2)cc1`, the IC90 was over 10 µM. For the same compound, the 50% inhibitory concentration (IC50) (PBLUC_HILL_SLOPE 16.8, 2.19, PBLUC_R_SQUARED 0.173, 0.582, read-out: LUCIFERASE INFECTION ASSAY - IC50) turned out to be 8.7 µM.
In the case of `COc1ccc(CCn2c(C)nc3c(cnn3-c3ccccc3)c2=O)cc1`, the concentration for an effect of 90% (IC90) worked out at 3.03 µM. Moreover, the IC50 under setting [1] amounted to 0.489 µM.
As for `Cc1sc2nc3c4ccccc4c(Cl)nn3c(=O)c2c1C`, the IC90 was over 10 µM. Moreover, the concentration for half-maximal inhibition (IC50) (HEPG2TOX_HILL_SLOPE 1.74, HEPG2TOX_R_SQUARED 0.905, PBLUC_HILL_SLOPE 1.87, PBLUC_R_SQUARED 0.353, read-out: LUCIFERASE INFECTION ASSAY - IC50) is 5.64 µM.
In the case of `CNc1snc(C)c1C(=O)NCC(c1cccs1)c1c[nH]c2ccccc12` (stereo unspecified), the IC90 came out at 9.68 µM. In addition, the IC50 (PBLUC_HILL_SLOPE 9.74, PBLUC_R_SQUARED 0.4, read-out: LUCIFERASE INFECTION ASSAY - IC50) was determined as 7.72 µM.
`CC(=O)O[C@H]1CC[C@]2(C)C3CC[C@]4(C)C(C5=CC(=O)OC5)CC[C@]4(O)C3CC[C@@H]2C1` (stereo partly specified): the IC90 came out at 1.14 µM. Besides, under “HEPG2TOX_HILL_SLOPE 2.72, HEPG2TOX_R_SQUARED 0.979, PBLUC_HILL_SLOPE 2.85, PBLUC_R_SQUARED 0.935, read-out: LUCIFERASE INFECTION ASSAY - IC50”, the 50% inhibitory concentration (IC50) stood at 0.528 µM.
With `COc1ccccc1-c1cc(-c2cccc(OC(F)(F)F)c2)cnc1N`, the concentration for an effect of 90% (IC90) was over 9.16 µM. For the same compound, the half-inhibitory concentration (IC50) under setting [1] was over 9.16 µM.
`CC(=O)NCCC(=O)N(c1ccc(Oc2ccccc2)cc1)c1nc2ccccc2s1`: the IC90 was over 10 µM. Moreover, the IC50 (PBLUC_HILL_SLOPE 4.74, PBLUC_R_SQUARED 0.599, read-out: LUCIFERASE INFECTION ASSAY - IC50) came out at 6.78 µM.
On to `COc1ccc(C(N)c2csc(NC(=O)NC(c3ccccc3)c3ccccc3)n2)cc1` (stereo unspecified), for which the IC90 is 3.36 µM. For the setting “PBLUC_HILL_SLOPE 167, PBLUC_R_SQUARED 0.12, read-out: LUCIFERASE INFECTION ASSAY - IC50”, the IC50 came to 3.31 µM.
